Molecules are shown by their SMILES.

The target in one experiment is DNA-PK (Homo sapiens (Human), UniProt P78527). In words: Pharmacodynamic assay, pDNA-PK/DNA-PK in MDA-231 tumors. It is filed as in vivo. As for the experimental part:
FADU or MDA-MB-231 cells were harvested during log phase growth for in vivo implantation. The resuspended cells were washed three times in phosphate buffered saline (PBS) before preparing the working dilution in PBS. FADU cells were diluted to 1×10^7 cells/mL and MDA-MB-231 cells were diluted to 5×10^7 cells/mL. Each mouse was injected subcutaneously in the right flank with 100 μL of the cellular suspension. Tumor growth was monitored until the tumors reached a target volume of at least 100 mm^3, at which point mice were randomly stratified into four treatment groups.
Tumor studies were performed as follows. Mice bearing FADU or MDA-231 tumors were pre-dosed with vehicle alone or compound 569 alone at 3, 6, and 10 mg/kg. Tumors were then irradiated with 10 Gy 45 min after vehicle or compound 569 administration or left unirradiated (vehicle and compound 569 at 10 mg/kg). Tumors were harvested 1 h post radiation.
Tissue homogenates for pharmacodynamic analyses were collected and processed as follows. Tumor tissues from FADU or MDA-MB-231 tumors were flash frozen in liquid nitrogen and pulverized on dry ice using a tissue pulverizer. A portion of the tumor powder was transferred into a microtube, followed by addition of 500 μL of RIPA buffer [[…], pH 8.0, 150 mM NaCl, 0.1% SDS, 0.5% sodium deoxycholate, 1% IGEPAL® CA-630 (Sigma, I8896)]. To 10 ml of RIPA buffer, 2 tablets each of Protease inhibitor and Phosphatase inhibitor (Roche, #04693159001 & #04906837001), 200 μL of 0.1 M PMSF and 160 μL of Aprotinin, (Sigma, A6279) were added. The suspension was homogenized on ice with a pellet pestle motor (KONTES) and incubated on ice for 30 minutes. Cell lysates were centrifuged at 13,200 rpm for 15 min at 4° C. and supernatants were transferred to a new tube and analyzed for protein concentration with a BCA kit (Pierce, 23227), followed by immunoblotting.

For another experiment, the system named is DNA-PK and ATM kinases. In words: Immunoblot of radiation-induced phosphorylation in MCF7 cells. It is filed as cell-based, human. The following applies: 20, 100, 500, 1000 nM, 30 min pre-treatment, 10 Gy IR. An excerpt:
Antibodies recognizing phosphorylated/activated ATM (S1981, #ab81292) and DNA-PKcs (S2056, #ab18192) were purchased from Abcam Biotechnology (Cambridge, MA). Antibodies to ATM (#A1106) and DNA-PKcs (#ab1832) were from Sigma and Abcam, respectively. Phospho-KAP1 (S824, #A300-767A) and KAP1 (A700-014) antibodies were from Bethyl Labs (Montgomery, TX). Phospho-TBK1 (#5483), cGAS (#15102), and pSTING (S366, #19781S) antibodies were from Cell Signaling Technology (CST) (Danvers, MA). STING (PA5-23381) antibodies were from ThermoFisher Scientific (Waltham, MA), and actin (#A5316) antibodies were from Sigma. […]
Cells were pretreated with Compound 569 at 20, 100, 500, or 1000 nM or DMSO for 30 min and then irradiated with 0 or 10 Gy (XRAD 160, Precision X Ray) as shown in FIG. 1. […] One hour after IR, cells were lysed in RIPA buffer ([…], pH 8.0, 150 mM NaCl, 0.1% SDS, 0.5% sodium deoxycholate, 1% IGEPAL® CA-630 (Sigma, 18896) for 20 min at 4° C. in the presence of protease and phosphatase inhibitor cocktails (Roche, #04693159001 & #04906837001). Cell lysates were centrifuged at 13,200 g for 10 min at 4° C. and supernatants were analyzed for protein content using BCA assay (Pierce™ BCA Protein Assay Kit, cat #23227, ThermoFisher Waltham, MA 02451) and equal amounts of protein/lane were used for subsequent immunoblot analyses. Proteins were denatured by adding NuPAGE LSD Sample Buffer [4×] […]

The test system of another experiment is TBK1. The experiment in a line: Immunoblot of TBK1 phosphorylation in HCT116 cells. Type of experiment: cell-based, human. The following applies: HCT116 p53 wild-type and p53−/− cells; 1 μM single agents, combination 0.5 or 1 micromolar each. The source says:
Antibodies recognizing phosphorylated/activated ATM (S1981, #ab81292) and DNA-PKcs (S2056, #ab18192) were purchased from Abcam Biotechnology (Cambridge, MA). Antibodies to ATM (#A1106) and DNA-PKcs (#ab1832) were from Sigma and Abcam, respectively. Phospho-KAP1 (S824, #A300-767A) and KAP1 (A700-014) antibodies were from Bethyl Labs (Montgomery, TX). Phospho-TBK1 (#5483), cGAS (#15102), and pSTING (S366, #19781S) antibodies were from Cell Signaling Technology (CST) (Danvers, MA). STING (PA5-23381) antibodies were from ThermoFisher Scientific (Waltham, MA), and actin (#A5316) antibodies were from Sigma. All antibodies were diluted 1:1000 with the exception of actin which was diluted 1:3000 in 1×TBST (1×TBS-10×TBS, (Corning, 46-012-CM), 0.05% Tween-20 (P7949) Sigma and 1% BSA. Secondary antibodies used were (a) Li-Cor method-Goat anti-Rabbit (926-3221) and Goat anti-Mouse (926-68020) Li-Cor (b) ECL method: Anti-rabbit IgG, HRP-linked (#7074S), CST.
Cells were pretreated with Compound 569 at 20, 100, 500, or 1000 nM or DMSO for 30 min and then irradiated with 0 or 10 Gy (XRAD 160, Precision X Ray) as shown in FIG. 1. In FIG. 3, cells were pretreated with Compound 569 at 1 μM, ATMi (AZD0156) at 1 μM, DNA-PKi (peposertib) at 1 μM as single agents or DMSO or with ATMi and DNA-PKi in combination at 0.5 micromolar each or at 1 micromolar each for 30 min and then irradiated with 0 or 10 Gy (XRAD 160, Precision X Ray) as shown in FIG. 1. One hour after IR, cells were lysed in RIPA buffer ([…], pH 8.0, 150 mM NaCl, 0.1% SDS, 0.5% sodium deoxycholate, 1% IGEPAL® CA-630 (Sigma, 18896) for 20 min at 4° C. in the presence of protease and phosphatase inhibitor cocktails (Roche, #04693159001 & #04906837001). Cell lysates were centrifuged at 13,200 g for 10 min at 4° C. and supernatants were analyzed for protein content using BCA assay (Pierce™ BCA Protein Assay Kit, cat #23227, ThermoFisher Waltham, MA 02451) and equal amounts of protein/lane were used for subsequent immunoblot analyses. Proteins were denatured by adding NuPAGE LSD Sample Buffer [4×] […]

As to `CC(C)NCCOc1ncc(-c2cc3c4c(cnc3cc2F)N(C)C(=O)C42CCC2)cc1NS(C)(=O)=O` [Compound 569, N-(5-(7′-Fluoro-3′-methyl-2′-oxo-2′,3′-dihydrospiro[cyclobutane-1,1′-pyrrolo[2,3-c]quinolin]-8′-yl)-2-(2-(isopropylamino)ethoxy)pyridin-3-yl)methanesulfonamide], the pDNA-PK/DNA-PK at DNA-PK (10 Gy, 3 mg/kg oral) is 0.889; on DNA-PK (10 Gy, 6 mg/kg oral), 0.670; at DNA-PK (10 Gy, 10 mg/kg oral), 0.454; at DNA-PK (no radiation, 10 mg/kg oral), 0.223. Also, in the experiment on DNA-PK and ATM kinases, the “inhibition of radiation-induced phosphorylation of DNA-PKcs (Ser2056), ATM (Ser1981) and KAP1 (ser824)” value is “potent dose-dependent inhibition”. Moreover, the “phosphorylation of TBK1” value with TBK1 is given as “more potent activator of TBK1 phosphorylation than either of the single target kinase inhibitors”.

Values taken from patent US20250268873A1, “COMBINATION OF DUAL ATM AND DNA-PK INHIBITORS AND IMMUNOTHERAPEUTIC AGENTS FOR USE IN CANCER THERAPY” (XRAD THERAPEUTICS, INC., priority 2021, published 2025).
